ChEMBL document CHEMBL1148480, “Structure-activity studies of orexin a and orexin B at the human orexin 1 and orexin 2 receptors led to orexin 2 receptor selective and orexin 1 receptor preferring ligands” (J Med Chem, 2004)
Residues, ends and D or L forms follow the SMILES beside them.

Assay: Ratio of orexin-1 receptor to orexin-2 receptor in human

Row | Compound | Ratio
1 | CC[C@H](C)[C@H](NC(=O)CNC(=O)[C@@H]1CCCN1C(=O)[C@H](C)NC(=O)[C@H](Cc1c[nH]cn1)NC(=O)[C@H](CC(N)=O)NC(=O)CNC(=O)[C@H](CO)NC(=O)[C@H](C)NC(=O)[C@H](CCC(N)=O)NC(=O)[C@H](CC(C)C)NC(=O)[C@H](CC(C)C)NC(=O)[C@H](CCCN=C(N)N)NC(=O)[C@H](CCC(N)=O)NC(=O)[C@H](CC(C)C)NC(=O)[C@H](CCCN=C(N)N)NC(=O)CNC(=O)[C@H](CCC(N)=O)NC(=O)[C@H](CC(C)C)NC(=O)CN)C(=O)N[C@@H](CC(C)C)C(=O)N[C@H](C(=O)N[C@@H](CCSC)C(=O)O)[C@@H](C)O (H-GLQGRLQRLLQASGNHAPGILTM-OH) | > 280
2 | CC[C@H](C)[C@H](NC(=O)CNC(=O)[C@H](C)NC(=O)[C@@H]1CCCN1C(=O)[C@H](Cc1c[nH]cn1)NC(=O)[C@H](CC(N)=O)NC(=O)CNC(=O)[C@H](CO)NC(=O)[C@H](C)NC(=O)[C@H](CCC(N)=O)NC(=O)[C@H](CC(C)C)NC(=O)[C@H](CC(C)C)NC(=O)[C@H](CCCN=C(N)N)NC(=O)[C@H](CCC(N)=O)NC(=O)[C@H](CC(C)C)NC(=O)[C@H](CCCN=C(N)N)NC(=O)CNC(=O)[C@H](CCC(N)=O)NC(=O)[C@H](CC(C)C)NC(=O)CN)C(=O)N[C@@H](CC(C)C)C(=O)N[C@H](C(=O)N[C@@H](CCSC)C(=O)O)[C@@H](C)O (H-GLQGRLQRLLQASGNHPAGILTM-OH) | > 230
3 | CC[C@H](C)[C@H](NC(=O)CNC(=O)[C@H](C)NC(=O)[C@H](C)NC(=O)[C@H](Cc1c[nH]cn1)NC(=O)[C@H](CC(N)=O)NC(=O)CNC(=O)[C@H](CO)NC(=O)[C@H](C)NC(=O)[C@H](CCC(N)=O)NC(=O)[C@H](CC(C)C)NC(=O)[C@H](CC(C)C)NC(=O)[C@H](CCCN=C(N)N)NC(=O)[C@H](CCC(N)=O)NC(=O)[C@H](CC(C)C)NC(=O)[C@H](CCCN=C(N)N)NC(=O)CNC(=O)[C@H](CCC(N)=O)NC(=O)[C@@H]1CCCN1C(=O)CN)C(=O)N[C@@H](CC(C)C)C(=O)N[C@H](C(=O)N[C@@H](CCSC)C(=O)O)[C@@H](C)O (H-GPQGRLQRLLQASGNHAAGILTM-OH) | 28.3
4 | CC[C@H](C)[C@H](NC(=O)CNC(=O)[C@H](C)NC(=O)[C@H](C)NC(=O)[C@H](Cc1c[nH]cn1)NC(=O)[C@H](CC(N)=O)NC(=O)CNC(=O)[C@H](CO)NC(=O)[C@H](C)NC(=O)[C@H](CCC(N)=O)NC(=O)[C@H](CC(C)C)NC(=O)[C@H](CC(C)C)NC(=O)[C@H](CCCN=C(N)N)NC(=O)[C@H](CCC(N)=O)NC(=O)[C@H](CC(C)C)NC(=O)[C@H](CCCN=C(N)N)NC(=O)CNC(=O)[C@@H](N)CCC(N)=O)C(=O)N[C@@H](CC(C)C)C(=O)N[C@H](C(=O)N[C@@H](CCSC)C(=O)O)[C@@H](C)O (H-QGRLQRLLQASGNHAAGILTM-OH) | 18.2
5 | CC[C@H](C)[C@H](NC(=O)CNC(=O)[C@H](C)NC(=O)[C@H](C)NC(=O)[C@H](Cc1c[nH]cn1)NC(=O)[C@H](CC(N)=O)NC(=O)CNC(=O)[C@H](CO)NC(=O)[C@H](C)NC(=O)[C@H](CCC(N)=O)NC(=O)[C@H](CC(C)C)NC(=O)[C@H](CC(C)C)NC(=O)[C@H](CCCN=C(N)N)NC(=O)[C@H](CCC(N)=O)NC(=O)[C@H](CC(C)C)NC(=O)[C@@H](N)CCCN=C(N)N)C(=O)N[C@@H](CC(C)C)C(=O)N[C@H](C(=O)N[C@@H](CCSC)C(=O)O)[C@@H](C)O (H-RLQRLLQASGNHAAGILTM-OH) | > 1750
6 | CC[C@H](C)[C@H](NC(=O)CNC(=O)[C@H](C)NC(=O)[C@H](C)NC(=O)[C@H](Cc1c[nH]cn1)NC(=O)[C@H](CC(N)=O)NC(=O)CNC(=O)[C@H](C)NC(=O)CNC(=O)[C@H](Cc1c[nH]cn1)NC(=O)[C@H](CC(C)C)NC(=O)[C@H](CC(C)C)NC(=O)[C@H](CCC(=O)O)NC(=O)[C@H](Cc1ccc(O)cc1)NC(=O)[C@H](CC(C)C)NC(=O)[C@@H](N)CCCN=C(N)N)C(=O)N[C@@H](CC(C)C)C(=O)N[C@H](C(=O)N[C@@H](CC(C)C)C(=O)O)[C@@H](C)O (H-RLYELLHGAGNHAAGILTL-OH) | 4.3
7 | CC[C@H](C)[C@H](NC(=O)CNC(=O)[C@H](C)NC(=O)[C@H](C)NC(=O)[C@H](Cc1c[nH]cn1)NC(=O)[C@H](CC(N)=O)NC(=O)CNC(=O)[C@H](C)NC(=O)CNC(=O)[C@H](Cc1c[nH]cn1)NC(=O)[C@H](CC(C)C)NC(=O)[C@H](CC(C)C)NC(=O)[C@H](CCC(=O)O)NC(=O)[C@H](Cc1ccc(O)cc1)NC(=O)[C@H](CC(C)C)NC(=O)[C@H](CCCN=C(N)N)NC(=O)[C@H](CS)NC(=O)[C@H](CO)NC(=O)[C@H](CS)NC(=O)[C@@H](NC(=O)[C@H](CCCCN)NC(=O)[C@H](CCC(N)=O)NC(=O)[C@@H](N)CCCN=C(N)N)[C@@H](C)O)C(=O)N[C@@H](CC(C)C)C(=O)N[C@H](C(=O)N[C@@H](CC(C)C)C(=O)O)[C@@H](C)O (H-RQKTCSCRLYELLHGAGNHAAGILTL-OH) | 2.3
8 | CC[C@H](C)[C@H](NC(=O)CNC(=O)[C@H](C)NC(=O)[C@H](C)NC(=O)[C@H](Cc1c[nH]cn1)NC(=O)[C@H](CC(N)=O)NC(=O)CNC(=O)[C@H](C)NC(=O)CNC(=O)[C@H](Cc1c[nH]cn1)NC(=O)[C@H](CC(C)C)NC(=O)[C@H](CC(C)C)NC(=O)[C@H](CCC(=O)O)NC(=O)[C@H](Cc1ccc(O)cc1)NC(=O)[C@H](CC(C)C)NC(=O)[C@H](CCCN=C(N)N)NC(=O)[C@H](CS)NC(=O)[C@@H](N)CO)C(=O)N[C@@H](CC(C)C)C(=O)N[C@H](C(=O)N[C@@H](CC(C)C)C(=O)O)[C@@H](C)O (H-SCRLYELLHGAGNHAAGILTL-OH) | 2.3
9 | CC[C@H](C)[C@H](NC(=O)CNC(=O)[C@H](C)NC(=O)[C@H](C)NC(=O)[C@H](Cc1c[nH]cn1)NC(=O)[C@H](CC(N)=O)NC(=O)CNC(=O)[C@H](C)NC(=O)CNC(=O)[C@H](Cc1c[nH]cn1)NC(=O)[C@H](CC(C)C)NC(=O)[C@H](CC(C)C)NC(=O)[C@H](CCC(=O)O)NC(=O)[C@H](Cc1ccc(O)cc1)NC(=O)[C@H](CC(C)C)NC(=O)[C@H](CCCN=C(N)N)NC(=O)[C@H](CS)NC(=O)[C@H](CO)NC(=O)[C@H](CS)NC(=O)[C@@H](N)[C@@H](C)O)C(=O)N[C@@H](CC(C)C)C(=O)N[C@H](C(=O)N[C@@H](CC(C)C)C(=O)O)[C@@H](C)O (H-TCSCRLYELLHGAGNHAAGILTL-OH) | 3.2
10 | CC[C@H](C)[C@H](NC(=O)CNC(=O)[C@H](C)NC(=O)[C@H](C)NC(=O)[C@H](Cc1c[nH]cn1)NC(=O)[C@H](CC(N)=O)NC(=O)CNC(=O)[C@H](CO)NC(=O)[C@H](C)NC(=O)[C@H](CCC(N)=O)NC(=O)[C@H](CC(C)C)NC(=O)[C@H](CC(C)C)NC(=O)[C@H](CCCN=C(N)N)NC(=O)[C@@H]1CCCN1C(=O)[C@H](CC(C)C)NC(=O)[C@H](CCCN=C(N)N)NC(=O)CNC(=O)[C@H](CCC(N)=O)NC(=O)[C@H](CC(C)C)NC(=O)CN)C(=O)N[C@@H](CC(C)C)C(=O)N[C@H](C(=O)N[C@@H](CCSC)C(=O)O)[C@@H](C)O (stereo in doubt; form 1) | 18.8
11 | CC[C@H](C)[C@H](NC(=O)CNC(=O)[C@H](C)NC(=O)[C@H](C)NC(=O)[C@H](Cc1c[nH]cn1)NC(=O)[C@H](CC(N)=O)NC(=O)CNC(=O)[C@H](CO)NC(=O)[C@H](C)NC(=O)[C@H](CCC(N)=O)NC(=O)[C@H](CC(C)C)NC(=O)[C@H](CC(C)C)NC(=O)[C@H](CCCN=C(N)N)NC(=O)[C@@H]1CCCN1C(=O)[C@H](CC(C)C)NC(=O)[C@H](CCCN=C(N)N)NC(=O)CNC(=O)[C@H](CCC(N)=O)NC(=O)[C@H](CC(C)C)NC(=O)CN)C(=O)N[C@@H](CC(C)C)C(=O)N[C@H](C(=O)N[C@@H](CCSC)C(=O)O)[C@@H](C)O (stereo in doubt; form 2) | 15
